This is an account of results in US7932262B2 (Novartis AG, priority 2006, dated 2011).

Structures are written as SMILES.

The first assay relates to PC-3 cells. The assay can be described thus: Cell Proliferation Assay (Cell Titer Glo), PC-3 cell line. The settings on record: Homo sapiens, PC-3, Cell Proliferation Assay, PC3; read-out: CPEC50 PC3. It is filed as cell-based. How it is done:
IV. Cell Proliferation Assay Protocol:
A2780, PC-3, or PC3MM cells were seeded at 1000 cells/well in 100 μL/well (10.000 cells/mL) growth media in 96-well plates. Cells were allowed to adhere to the bottom of plates for 3-5 hours in a 37° C. 5% CO2 incubator. Compounds were dissolved in DMSO and then transferred to the cell plates. The cells were incubated with the compounds for 3 days in a 37° C. 5% CO2 incubator. The growth medium containing the compounds was then removed from the cells and fresh medium was added, followed by 100 μL of Cell Titer Glo assay reagent (Promega). This mixture was shaken for 1 minute and then incubated without shaking for 10 minutes. Activity determinations for the compounds were made by detection on a Trilux Instrument.
V. Cell Proliferation Assay Protocol: PC-3 Cell Line
PC-3 cells were seeded at 1000 cells/well in 100 μL/well (10.000 cells/mL) along with growth media into black-walled, clear bottom 96-well plates. The cells were allowed to adhere to the bottom of the plate for 3-5 hours in a 37° C. 5% CO2 incubator.
Test compounds were diluted to 500× in DMSO. The DMSO solutions of six of the compounds were transferred to the cells in the 96 well round bottom plate, column 2, row B-F. A 1:3 serial dilution of each compound was carried out. The serial dilution comprised adding 20 μL of DMSO to the wells containing the compounds and doing a 1:3 dilution across the plate from columns 2-10. Column 11 contained only DMSO. The serial dilution was carried out using a BioMek 2000 protocol “CP Serial Dilution using 250 μL tips” or “Proliferation Compound” (if using 20 μL tips).
To a 96 deep well block, columns 2-11 rows B-F, was transferred 500 μL of growth medium. Using the FX protocol “HH_CellAssay—2 μL to 500 μL”, 2 μL of compound from each cell of the compound plate was transferred to the corresponding cell in the 96 deep well block containing 500 μL of growth medium. The instrument was programmed to dilute the compound in growth medium and then transfer 100 μL of that mixture to cell plates containing cells. The cell plates, to which test compounds had been added, were incubated for 3 days at 37° C. Following the incubation, the medium was removed and replaced with fresh medium. Cell Titer Glo (100 μL) was added to each well and the plate was shaken for 1 minute and then incubated without shaking for 10 minutes. The plates were then read using a Trilux instrument.
In general terms: Cellular ATP, detected with luciferase, serves as a proxy for viable cell number.
As to `CNc1ncc2ccc(OC3CCN(C(C)C)CC3)cc2n1` [Compound 322, 7-(1-isopropylpiperidin-4-yloxy)-N-methylquinazolin-2-amine], the EC50 fell in the range of 5 to 10 µM.
Regarding `CNc1ncc2ccc(O)c(C3CCN(C(C)C)CC3)c2n1` [Compound 323, 8-(1-isopropylpiperidin-4-yl)-2-(methylamino)quinazolin-7-ol], the EC50 lay within 5 to 10 µM.
Regarding `CC(C)N1CCC(Oc2ccc3cnc(Nc4nc5ccccc5s4)nc3c2)CC1` [Compound 324, N-(7-(1-isopropylpiperidin-4-yloxy)quinazolin-2-yl)benzo[d]thiazol-2-amine], the EC50 is < 5 µM.
With `O=C(NC1CCNCC1)c1ccc(Nc2ncc3c(Br)ccc(OC4CCNCC4)c3n2)cc1` [Compound 370, 4-(5-bromo-8-(piperidin-4-yloxy)quinazolin-2-ylamino)-N-(piperidin-4-yl)benzamide], the EC50 fell in the range of 5 to 10 µM.
Still for that read-out and setting: under `COc1cc(C(=O)NC2CCN(C)CC2)ccc1Nc1ncc2c(Br)ccc(OC3CCNCC3)c2n1` [Compound 371, 4-(5-bromo-8-(piperidin-4-yloxy)quinazolin-2-ylamino)-3-methoxy-N-(1-methylpiperidinyl)benzamide] stands 5 to 10 µM; under `Brc1ccc(OC2CCNCC2)c2nc(Nc3ccc(N4CCNCC4)cc3)ncc12` [Compound 372, 5-bromo-N-(4-(piperazin-1-yl)phenyl)-8-(piperidin-4-yloxy)quinazolin-2-amine], < 5 µM; under `Cc1ccc(OC2CCNCC2)c2nc(Nc3ccc(N4CCNCC4)cc3)ncc12` [Compound 374, 5-methyl-N-(4-(piperazin-1-yl)phenyl)-8-(piperidin-4-yloxy)quinazolin-2-amine], 5 to 10 µM.
Same read-out and setting: the same measure for `Cc1ccc(OC2CCNCC2)c2nc(Nc3ccc(C(=O)NC4CCNCC4)cc3)ncc12` [Compound 376, 4-(5-methyl-8-(piperidin-4-yloxy)quinazolin-2-ylamino)-N-(piperidin-4-yl)benzamide]: 5 to 10 µM; for `CC(C)N1CCC(Oc2cccc3cnc(NC(=O)c4ccccc4)nc23)CC1` [Compound 541, N-(8-(1-isopropylpiperidin-4-yloxy)quinazolin-2-yl)benzamide]: 5 to 10 µM; for `CC(C)N1CCC(Oc2cccc3cnc(NS(=O)(=O)c4ccccc4)nc23)CC1` [Compound 542, N-(8-(1-isopropylpiperidin-4-yloxy)quinazolin-2-yl)benzenesulfonamide]: 5 to 10 µM.
Regarding `CC(C)N1CCC(Nc2ncc3cccc(O)c3n2)CC1` [Compound 543, 2-(1-isopropylpiperidin-4-ylamino)quinazolin-8-ol], the EC50 lay in the range of 5 to 10 µM.
On to `CC(=O)Nc1ncc2cccc(OC3CCN(C(C)C)CC3)c2n1` [Compound 544, N-(8-(1-isopropylpiperidin-4-yloxy)quinazolin-2-yl)acetamide], for which the EC50 is 5 to 10 µM.
The same measure, in the same setting: the same measure for `NS(=O)(=O)c1ccc(Nc2ncc3cc(C(=O)Nc4cccc(NC(=O)c5ccccc5)c4)ccc3n2)cc1` [Compound 578, N-(3-benzamidophenyl)-2-(4-sulfamoylphenylamino)quinazoline-6-carboxamide]: < 5 µM; for `CC(C)NC(=O)c1ccc(Nc2ncc3ccc(Oc4ccccc4)cc3n2)cc1` [Compound 591, N-isopropyl-4-(7-phenoxyquinazolin-2-ylamino)benzamide]: < 5 µM.

Staying with this assay, now noted: Homo sapiens, PC-3, PC3 cells; read-out: CPEC50 PC3.
Regarding `Nc1ncc(-c2ccc3cnc(Nc4ccc(S(N)(=O)=O)cc4)nc3c2OC2CCNCC2)cc1C(F)(F)F` [Compound 933, 4-(7-(6-amino-5-(trifluoromethyl)pyridin-3-yl)-8-(piperidin-4-yloxy)quinazolin-2-ylamino)benzenesulfonamide], the EC50 was < 5 µM.

Another assay concerns the target T1, PDK1 kinase (Homo sapiens, UniProt O15530).
T1 sequence (O15530 1-556): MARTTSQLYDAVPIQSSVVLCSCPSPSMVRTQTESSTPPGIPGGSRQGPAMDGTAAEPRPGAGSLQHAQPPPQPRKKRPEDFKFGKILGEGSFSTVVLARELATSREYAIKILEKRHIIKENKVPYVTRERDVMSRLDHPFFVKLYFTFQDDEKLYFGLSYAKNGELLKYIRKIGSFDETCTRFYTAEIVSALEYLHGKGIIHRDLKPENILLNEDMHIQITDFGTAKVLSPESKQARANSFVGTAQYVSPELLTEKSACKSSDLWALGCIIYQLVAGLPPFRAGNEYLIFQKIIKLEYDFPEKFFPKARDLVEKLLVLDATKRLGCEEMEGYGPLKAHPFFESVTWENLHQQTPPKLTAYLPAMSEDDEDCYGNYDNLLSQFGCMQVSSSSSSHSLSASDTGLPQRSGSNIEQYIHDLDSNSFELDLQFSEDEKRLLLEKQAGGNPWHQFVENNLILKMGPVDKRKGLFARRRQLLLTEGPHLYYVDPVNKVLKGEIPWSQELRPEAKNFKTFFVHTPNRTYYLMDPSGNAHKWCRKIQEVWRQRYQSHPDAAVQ
The assay can be described thus: PDK1 Kinase Alpha Screen Assay. It is filed as biochemical. The settings on record: PDK1 Kinase Alpha Screen Assay; read-out: PDK1 IC50. On the procedure: 1. PDK1 Kinase Alpha Screen Assay
Reagents/Concentrations: The PDK1-4 peptide substrate, biotin-[…]-NH2, was purchased from the Tufts University Core Facility. The final concentration of PDK1-4 peptide substrate was 50 nM The ATP substrate (Adenosine-5′-triphosphate) was purchased from Roche Diagnostics. The final concentration of ATP substrate was 10 uM. Phospho-(Ser/Thr) PKA substrate antibody was purchased from Cell Signaling Technology. The final concentration of antibody was 0.3 mg/ml. The Alpha Screen Protein A detection kit containing donor and acceptor beads was purchased from PerkinElmer Life Sciences. The final concentration of both donor and acceptor beads was 25 μg/ml. Alpha Screen was used for detection. The biotinylated-PDK1-4 peptide was phosphorylated by PDK1 kinase using the ATP substrate. The biotinylated-PDK1-4 peptide substrate was bound to the streptavidin coated donor bead. The antibody was bound to the protein A coated acceptor bead. The antibody bound to the phosphorylated form of the biotinylated PDK-1 peptide substrate, bringing the donor and acceptor beads into close proximity. Laser irradiation of the donor bead at 680 nm generated a flow of short-lived singlet oxygen molecules. When the donor and acceptor beads were in close proximity, the reactive oxygen generated by the irradiation of the donor beads initiated a luminescence/fluorescence cascade in the acceptor beads. This process led to a highly amplified signal with output in the 530-620 nm range. Assays were carried out in 50 mM Tris, pH=7.5, 10 mM MgCl2, 0.1% Bovine Serum Albumin, 0.01% Tween-20, 2 mM Dithiolthreitol, 2.5% Dimethyl Sulfoxide. Reactions were stopped by adding 50 mM Tris, pH=7.5, 90 mM EDTA, 0.1% Bovine Serum Albumin, 0.01% Tween-20.
Procedure: To 10 μl of PDK1-4 peptide, 0.5 μl of test compound in dimethyl sulfoxide is added. PDK1 kinase and ATP are mixed. 10 μl of the PDK1 kinase/ATP mix is added to start the reaction. The reaction is allowed to proceed for 3-18 hours. The reactions are stopped by adding 10 μl of the EDTA-containing stop buffer. Beads are mixed with antibody. 25 μl of the bead/antibody mix is added to the stopped reactions. Plates are incubated at room temperature overnight to allow for detection development before being read. The assay is run is a 384-well format. […]
By IC50 is commonly meant the midpoint of a concentration-inhibition curve. As to `COc1ccccc1Oc1cccc2cnc(Nc3ccc(S(N)(=O)=O)cc3)nc12` [Compound 408, 4-(8-(2-methoxyphenoxy)quinazolin-2-ylamino)benzenesulfonamide], the IC50 is < 5 µM.
For the compound `NC(=O)c1cccc(Oc2cccc3cnc(Nc4ccc(S(N)(=O)=O)cc4)nc23)c1` [Compound 411, 3-(2-(4-sulfamoylphenylamino)quinazolin-8-yloxy)benzamide], the IC50 was < 5 µM.
Consider `NS(=O)(=O)c1ccc(Nc2ncc3cccc(Oc4ccnc(F)c4)c3n2)cc1` [Compound 412, 4-(8-(2-fluoropyridin-4-yloxy)quinazolin-2-ylamino)benzenesulfonamide], for which the half-maximal inhibitory concentration (IC50) is < 5 µM.
The same measure, in the same setting: under `NS(=O)(=O)c1ccc(Nc2ncc3ccc(Oc4ccnc(F)c4)cc3n2)cc1` [Compound 416, 4-(7-(2-fluoropyridin-4-yloxy)quinazolin-2-ylamino)benzenesulfonamide] stands < 5 µM.

The same assay, now with this note: read-out: PDK1 IC50.
As to `CCCCNS(=O)(=O)c1cccc(Nc2ncc3cccc(-c4cccc(NC(C)=O)c4)c3n2)c1` [Compound 87, N-{3-[2-(3-Butylsulfamoyl-phenylamino)-quinazolin-8-yl]-phenyl}-acetamide], the IC50 was in the range of 5 to 10 µM.
As to `NC(=O)c1ccccc1-c1ccc2cnc(Nc3ccc(S(N)(=O)=O)cc3)nc2c1` [Compound 125, 2-[2-(4-Sulfamoyl-phenylamino)-quinazolin-7-yl]-benzamide], the half-inhibitory concentration (IC50) was < 5 µM.
Still for that read-out and setting: under `CC(=O)Nc1cccc(-c2ccc3cnc(Nc4ccc(S(N)(=O)=O)cc4)nc3c2)c1` [Compound 126, N-{3-[2-(4-Sulfamoyl-phenylamino)-quinazolin-7-yl]-phenyl}-acetamide] stands 5 to 10 µM; under `CS(=O)(=O)c1cccc(-c2ccc3cnc(Nc4ccc(S(N)(=O)=O)cc4)nc3c2)c1` [Compound 128, 4-[7-(3-Methanesulfonyl-phenyl)-quinazolin-2-ylamino]-benzenesulfonamlde], < 5 µM.
Consider `CS(=O)(=O)Nc1cccc(-c2ccc3cnc(Nc4ccc(S(N)(=O)=O)cc4)nc3c2)c1` [Compound 129, 4-[7-(3-Methanesulfonylamino-phenyl)-quinazolin-2-ylamino]-benzenesulfonamide], for which the half-inhibitory concentration (IC50) fell in the range of 10 to 25 µM.
